Measured values from paper PMC5607094 (Biochemical pharmacology, 2017).

Key:
FPR1 [1] = target: T1, FPR1 (Homo sapiens, UniProt P21462); assay: fMLF-induced Ca2+ flux in human neutrophils; assay type: cell-based
T1 sequence (P21462 1-350): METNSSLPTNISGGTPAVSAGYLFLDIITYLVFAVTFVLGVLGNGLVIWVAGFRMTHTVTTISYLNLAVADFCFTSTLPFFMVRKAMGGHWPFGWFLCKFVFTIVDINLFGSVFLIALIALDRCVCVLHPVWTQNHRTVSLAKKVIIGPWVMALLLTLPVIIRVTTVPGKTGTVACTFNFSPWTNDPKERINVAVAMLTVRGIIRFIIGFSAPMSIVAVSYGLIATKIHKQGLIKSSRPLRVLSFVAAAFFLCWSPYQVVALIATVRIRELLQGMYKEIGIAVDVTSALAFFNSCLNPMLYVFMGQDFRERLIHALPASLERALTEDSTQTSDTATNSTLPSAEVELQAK

human neutrophils [2] = assay: fMLF-induced neutrophil chemotaxis; assay type: cell-based; details: read-out: Chemotaxis PMN (+ fMLF) IC50
human neutrophils [3] = assay: fMLF-induced neutrophil adhesion to T84 epithelial cells; assay type: cell-based; details: read-out: Adhesion PMN (+ fMLF) IC50
FPR1 [4] = target: T1, FPR1; assay: fMLF-induced Ca2+ mobilization in FPR1-HL60 cells; assay type: cell-based; details: for Activity class: Active / N.A. = no activity at highest concentration tested in Ca2+ flux assay (50 µM); for FPR1 antagonist activity: fMLF-induced Ca2+ mobilization in FPR1-HL60 cells
ERK1/2 [5] = assay: ERK1/2 phosphorylation in FPR1-RBL cells; assay type: cell-based, rat; details: FPR1-RBL cells (Figure 5B; text prints FPR1-HL60), 20 nM fMLF
ERK1/2 [6] = assay: ERK1/2 phosphorylation in human neutrophils; assay type: cell-based; details: 10 min pretreatment, 10 nM fMLF
ERK1/2 [7] = assay: ERK1/2 phosphorylation in DMSO-differentiated neutrophil-like HL60 cells; assay type: cell-based, human; details: for Inhibition of fMLF-induced phosphorylation of ERK1/2: DMSO-differentiated HL60 cells, 10 min pretreatment, 20 nM fMLF 5 min; for Inhibition of fMLF-induced ERK phosphorylation: cell type not stated in the sentence (Discussion)
FPR2 [8] = target: T2, FPR2 (Homo sapiens, UniProt P25090); assay: Ca2+ mobilization in FPR2-HL60 cells
T2 sequence (P25090 1-351): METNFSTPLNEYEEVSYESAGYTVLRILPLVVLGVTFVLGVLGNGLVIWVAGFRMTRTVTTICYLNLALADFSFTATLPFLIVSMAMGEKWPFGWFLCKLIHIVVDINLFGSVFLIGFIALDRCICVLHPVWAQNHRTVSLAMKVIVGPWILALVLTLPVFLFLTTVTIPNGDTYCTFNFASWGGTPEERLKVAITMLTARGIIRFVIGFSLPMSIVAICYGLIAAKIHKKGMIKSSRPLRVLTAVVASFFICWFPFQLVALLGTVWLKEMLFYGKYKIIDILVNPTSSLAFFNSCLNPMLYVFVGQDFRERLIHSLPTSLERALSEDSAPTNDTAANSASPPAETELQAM

FPR2 [9] = target: T2, FPR2; assay: WKYMVM-induced Ca2+ flux in human neutrophils

Structure (SMILES) | IC50 (FPR1 [1]) | IC50 (human neutrophils [2]) | IC50 (human neutrophils [3]) | Activity class (FPR1 [4]) | Inhibition of fMLF-induced ERK1/2 phosphorylation (ERK1/2 [5]) | Inhibition of fMLF-induced phosphorylation of ERK1/2 (ERK1/2 [6]) | Inhibition of fMLF-induced phosphorylation of ERK1/2 (ERK1/2 [7]) | Inhibition of fMLF-induced ERK phosphorylation (ERK1/2 [7]) | IC50 (FPR2 [8]) | IC50 (FPR2 [9]) | FPR1 antagonist activity (FPR1 [4])
CCCN1C(=O)C(O)=C(C(=O)c2ccccc2)C1c1cc(OC)ccc1OC (centres unmarked) [Compound 4, 4-benzoyl-5-(2,5-dimethoxyphenyl)-3-hydroxy-1-propyl-2,5-dihydro-1H-pyrrol-2-one] | 10.7 ± 2.5 µM | 6.3 ± 2.2 µM | 2.9 ± 1.1 µM | Active |  |  |  |  |  |  | 
CCCCN1C(=O)C(O)=C(C(=O)c2ccc(OC)cc2)C1c1ccc(C)cc1 (centres unmarked) [Compound 5, 1-butyl-3-hydroxy-4-(4-methoxybenzoyl)-5-(4-methylphenyl)-2,5-dihydro-1H-pyrrol-2-one] | 26.7 ± 4.6 µM | 21.3 ± 7.6 µM | 25.8 ± 3.2 µM | Active |  |  |  |  |  |  | 
CCCCCCN1C(=O)C(O)=C(C(=O)c2ccccc2)C1c1ccc(O)c(OC)c1 (centres unmarked) [Compound 14, 4-benzoyl-1-hexyl-3-hydroxy-5-(4-hydroxy-3-methoxyphenyl)-2,5-dihydro-1H-pyrrol-2-one] | 4.8 ± 0.5 µM | 4.2 ± 1.3 µM | 1.6 ± 0.6 µM | Active | inhibited | effectively inhibited | effectively inhibited | inhibited |  |  | 
COc1ccccc1C1C(C(=O)c2ccc(C)cc2)=C(O)C(=O)N1CC(C)O (centres unmarked) [Compound 6, 3-hydroxy-1-(2-hydroxypropyl)-5-(2-methoxyphenyl)-4-(4-methylbenzoyl)-2,5-dihydro-1H-pyrrol-2-one] | 12.4 ± 3.2 µM | 36.3 ± 4 µM |  |  |  |  |  |  |  |  | 
COCCN1C(=O)C(O)=C(C(=O)c2ccccc2)C1c1cc(OC)ccc1OC (centres unmarked) [Compound 17, 4-benzoyl-5-(2,5-dimethoxyphenyl)-3-hydroxy-1-(2-methoxyethyl)-2,5-dihydro-1H-pyrrol-2-one] | 6.7 ± 0.2 µM | 2.2 ± 1.2 µM | 1.1 ± 0.2 µM | Active | inhibited | effectively inhibited | effectively inhibited | inhibited |  |  | 
CCCCCCN1C(=O)C(O)=C(C(=O)c2ccc(C)cc2)C1c1ccc(OC)cc1OC (centres unmarked) [Compound 15, 5-(2,4-dimethoxyphenyl)-1-hexyl-3-hydroxy-4-(4-methylbenzoyl)-2,5-dihydro-1H-pyrrol-2-one] | 3.8 ± 1.8 µM | 12.8 ± 4.8 µM |  | Active |  |  |  | inhibited | 6.5 ± 0.9 µM | 1.7 ± 0.1 µM | highly active FPR1 antagonists
COCCN1C(=O)C(O)=C(C(=O)c2ccc(C)cc2)C1c1cc(OC)ccc1OC (centres unmarked) [Compound 18, 5-(2,5-dimethoxyphenyl)-3-hydroxy-1-(2-methoxyethyl)-4-(4-methylbenzoyl)-2,5-dihydro-1H-pyrrol-2-one] | 5.2 ± 1.4 µM | 12.4 ± 4.2 µM | 13.3 ± 2.7 µM | Active |  |  |  |  |  |  | highly active FPR1 antagonists
